Reference: US20210128566A1, “NOVEL FUNCTIONALIZED PURINE-2,6-DIONES AND THEIR USE IN MEDICINE” (THOMAS HELLEDAYS STIFTELSE FÖR MEDICINSK FORSKNING, priority 2017, published 2021)

Biological target: recombinant human NUDT5 (Homo sapiens, UniProt Q9UKK9)
Experiment: NUDT5 inhibitor activity by malachite green reporter assay
Type: biochemical
Conditions: 6 nM NUDT5, 50 μM ADP-Ribose, 15 minutes at room temperature
Procedure: NUDT5 inhibitors were evaluated using a coupled enzymatic assay with detection of inorganic phosphate (Pi) using the malachite green assay. Following enzymatic hydrolysis of ADP-Ribose (Sigma-Aldrich A0572) by NUDT5, to yield AMP and ribose-5-phosphate, the latter product is continuously processed by a significant excess of alkaline phosphatase (Sigma-Aldrich, P0114). Formation of Pi is quantified based on the green complex (that absorbs at 630 nm) formed between malachite green and molybdate according to published procedure (Baykov, A. A., Evtushenko, O. A. and Avaeva, S. M., Anal Biochem, 171, 266-270 (1988)). Assay buffer consisted of 10 mM Tris-acetate at pH 8.0, 40 mM sodium chloride, 10 mM magnesium acetate, 0.005% Tween-20 and 1 mM dithiothreitol (DTT). The final conditions consisted of 6 nM recombinant human NUDT5, 50 μM ADP-Ribose and 10 U/ml of calf intestine alkaline phosphatase. The plates with compounds, enzymes and substrate were incubated at room temperature for 15 minutes, after which the reaction was terminated and the signal developed by the addition of the malachite green reagent using a MultiDrop (Thermo Scientific). Following vigorous shaking on plate shakers for a minimum of eight minutes the absorbance was read in a microplate reader (HidexSense) using a filter at 630 nm and a read time of 0.1 s per well. Inhibitors were used in dilutions from 100 μM to 1.7 nM in 3-fold dilution steps. Experiments were run in duplicate and confirmed in two independent experiments. IC50 values were determined by curve fitting using ExcelFit.

IC50 (Table 3) [nM]	IC50 (Table 4) [nM]	SMILES
12.5		CNc1nc2c(c(=O)n(C)c(=O)n2C)n1Cc1nnc(-c2ccc(Cl)c(Cl)c2)o1 [Example 5, 7-{[5-(3,4-dichlorophenyl)-1,3,4-oxadiazo-2-yl]methyl}-1,3-dimethyl-8-(methylamino)-2,3,6,7-tetrahydro-1H-purine-2,6-dione]
	19700	COc1ccc(-c2cc(Cn3c(Cl)nc4c3c(=O)n(C)c(=O)n4C)on2)cc1 [Example 77, 8-chloro-7-{[3-(4-methoxyphenyl)-1,2-oxazol-5-yl]methyl}-1,3-dimethyl-2,3,6,7-tetrahydro-1H-purine-2,6-dione]
	35.7	COc1cc(-c2nnc(Cn3c(N4CCNCC4)nc4c3c(=O)n(C)c(=O)n4C)o2)ccc1C [Example 119, 7-{[5-(3-methoxy-4-methylphenyl)-1,3,4-oxadiazol-2-yl]methyl}-1,3-dimethyl-8-(piperazin-1-yl)-2,3,6,7-tetrahydro-1H-purine-2,6-dione]
	8.27	Cn1c(=O)c2c(nc(N3CCC(C(N)=O)CC3)n2Cc2nnc(-c3ccc(Cl)c(Cl)c3)o2)n(C)c1=O [Example 136, 1-(7-{[5-(3,4-dichlorophenyl)-1,3,4-oxadiazol-2-yl]methyl}-1,3-dimethyl-2,6-dioxo-2,3,6,7-tetrahydro-1H-purin-8-yl)piperidine-4-carboxamide]
	1510	Cn1c(=O)c2c(nc(Cl)n2Cc2nnc(-c3ccc([N+](=O)[O-])cc3)o2)n(C)c1=O [Example 96, 8-chloro-1,3-dimethyl-7-{[5-(4-nitrophenyl)-1,3,4-oxadiazol-2-yl]methyl}-2,3,6,7-tetrahydro-1H-purine-2,6-dione]
	239	Cn1c(=O)c2c(nc(Cl)n2Cc2cnc(-c3ccc(Cl)cc3)s2)n(C)c1=O [Example 75, 8-chloro-7-{[2-(4-chlorophenyl)-1,3-thiazol-5-yl]methyl}-1,3-dimethyl-2,3,6,7-tetrahydro-1H-purine-2,6-dione]
	214	CCOC(=O)c1cnn(-c2nc3c(c(=O)n(C)c(=O)n3C)n2Cc2nnc(-c3ccc(Cl)c(Cl)c3)o2)c1 [Example 68, ethyl 1-(7-{[5-(3,4-dichlorophenyl)-1,3,4-oxadiazol-2-yl]methyl}-1,3-dimethyl-2,6-dioxo-2,3,6,7-tetrahydro-1H-purin-8-yl)-1H-pyrazole-4-carboxylate]
	39.1	COc1cc(-c2nnc(Cn3c(N4CCC(N(C)C)CC4)nc4c3c(=O)n(C)c(=O)n4C)o2)ccc1C [Example 126, 8-[4-(dimethylamino)piperidin-1-yl]-7-{[5-(3-methoxy-4-methylphenyl)-1,3,4-oxadiazol-2-yl]methyl}-1,3-dimethyl-2,3,6,7-tetrahydro-1H-purine-2,6-dione]
221		CCN1CCN(c2nc3c(c(=O)n(C)c(=O)n3C)n2Cc2nnc(-c3cccc(C)c3)o2)CC1 [Example 55, 8-(4-ethylpiperazin-1-yl)-1,3-dimethyl-7-{[5-(3-methylphenyl)-1,3,4-oxadiazol-2-yl]methyl}-2,3,6,7-tetrahydro-1H-purine-2,6-dione]
22.9		CC1CCN(c2nc3c(c(=O)n(C)c(=O)n3C)n2Cc2nnc(-c3ccc(Cl)c(Cl)c3)o2)CC1 [Example 10, 7-{[5-(3,4-dichlorophenyl)-1,3,4-oxadiazol-2-yl]methyl}-1,3-dimethyl-8-(4-methylpiperidin-1-yl)-2,3,6,7-tetrahydro-1H-purine-2,6-dione]
	60.7	COc1cc(-c2nnc(Cn3c(N4CCCNCC4)nc4c3c(=O)n(C)c(=O)n4C)o2)ccc1C [Example 131, 8-(1,4-diazepan-1-yl)-7-{[5-(3-methoxy-4-methylphenyl)-1,3,4-oxadiazol-2-yl]methyl}-1,3-dimethyl-2,3,6,7-tetrahydro-1H-purine-2,6-dione]
	32.9	COc1cc(-c2nnc(Cn3c(N4CCC(CN)CC4)nc4c3c(=O)n(C)c(=O)n4C)o2)ccc1C [Example 127, 8-[4-(aminomethyl)piperidin-1-yl]-7-{[5-(3-methoxy-4-methylphenyl)-1,3,4-oxadiazol-2-yl]methyl}-1,3-dimethyl-2,3,6,7-tetrahydro-1H-purine-2,6-dione]
33.2		Cn1c(=O)c2c(nc(N3CCN(CCN)CC3)n2Cc2nnc(-c3ccc(Cl)c(Cl)c3)o2)n(C)c1=O [Example 30, 8-[4-(2-aminoethyl)piperazin-1-yl]-7-{[5-(3,4-dichlorophenyl)-1,3,4-oxadiazol-2-yl]methyl}-1,3-dimethyl-2,3,6,7-tetrahydro-1H-purine-2,6-dione]
106		Cn1c(=O)c2c(nc(N3CCN(CCO)CC3)n2Cc2nnc(-c3ccc(Cl)c(Cl)c3)o2)n(C)c1=O [Example 31, 7-{[5-(3,4-dichlorophenyl)-1,3,4-oxadiazol-2-yl]methyl}-8-[4-(2-hydroxyethyl)piperazin-1-yl]-1,3-dimethyl-2,3,6,7-tetrahydro-1H-purine-2,6-dione]
	21.6	Cc1cc(-c2nnc(Cn3c(N4CCNCC4)nc4c3c(=O)n(C)c(=O)n4C)o2)ccc1Cl [Example 116, 7-{[5-(4-chloro-3-methylphenyl)-1,3,4-oxadiazol-2-yl]methyl}-1,3-dimethyl-8-(piperazin-1-yl)-2,3,6,7-tetrahydro-1H-purine-2,6-dione]
922		Cc1cccc(-c2nnc(Cn3c(N4CCN(CCO)CC4)nc4c3c(=O)n(C)c(=O)n4C)o2)c1 [Example 56, 8-[4-(2-hydroxyethyl)piperazin-1-yl]-1,3-dimethyl-7-{[5-(3-methylphenyl)-1,3,4-oxadiazol-2-yl]methyl}-2,3,6,7-tetrahydro-1H-purine-2,6-dione]
	911	COc1cc(-c2nnc(Cn3c(N4CCNC(C(F)(F)F)C4)nc4c3c(=O)n(C)c(=O)n4C)o2)ccc1C (stereo not drawn) [Example 129, 7-{[5-(3-methoxy-4-methylphenyl)-1,3,4-oxadiazol-2-yl]methyl}-1,3-dimethyl-8-[3-(trifluoromethyl)piperazin-1-yl]-2,3,6,7-tetrahydro-1H-purine-2,6-dione]
15		Cn1c(=O)c2c(nc(N3CCCCC3)n2Cc2nnc(-c3ccc(Cl)c(Cl)c3)o2)n(C)c1=O [Example 9, 7-{[5-(3,4-dichlorophenyl)-1,3,4-oxadiazol-2-yl]methyl}-1,3-dimethyl-8-(piperidin-1-yl)-2,3,6,7-tetrahydro-1H-purine-2,6-dione]
17.8		CC1CN(c2nc3c(c(=O)n(C)c(=O)n3C)n2Cc2nnc(-c3ccc(Cl)c(Cl)c3)o2)CCN1 (stereo not drawn) [Example 33, 7-{[5-(3,4-dichlorophenyl)-1,3,4-oxadiazol-2-yl]methyl}-1,3-dimethyl-8-(3-methylpiperazin-1-yl)-2,3,6,7-tetrahydro-1H-purine-2,6-dione]
	2150	Cn1c(=O)c2c(nc(Cl)n2Cc2nnc(-c3cccc(F)c3)o2)n(C)c1=O [Example 91, 8-chloro-7-{[5-(3-fluorophenyl)-1,3,4-oxadiazol-2-yl]methyl}-1,3-dimethyl-2,3,6,7-tetrahydro-1H-purine-2,6-dione]
	> 100000	COc1ccc(-c2nnc(Cn3c(Cl)nc4c3c(=O)n(C)c(=O)n4C)o2)cc1OC [Example 104, 8-chloro-7-{[5-(3,4-dimethoxyphenyl)-1,3,4-oxadiazol-2-yl]methyl}-1,3-dimethyl-2,3,6,7-tetrahydro-1H-purine-2,6-dione]
	9440	Cn1c(=O)c2c(nc(N3CCN(C(=O)OC(C)(C)C)CC3)n2Cc2nnc(-c3ccc([N+](=O)[O-])cc3)o2)n(C)c1=O [Example 100, tert-butyl 4-(1,3-dimethyl-7-{[5-(4-nitrophenyl)-1,3,4-oxadiazol-2-yl]methyl}-2,6-dioxo-2,3,6,7-tetrahydro-1H-purin-8-yl)piperazine-1-carboxylate]
	17.4	COc1ccc(-c2nnc(Cn3c(N4CCNCC4)nc4c3c(=O)n(C)c(=O)n4C)o2)cc1Cl [Example 118, 7-{[5-(3-chloro-4-methoxyphenyl)-1,3,4-oxadiazol-2-yl]methyl}-1,3-dimethyl-8-(piperazin-1-yl)-2,3,6,7-tetrahydro-1H-purine-2,6-dione]
	345	Cn1c(=O)c2c(nc(N3CCNCC3)n2Cc2nnc(-c3ccc(F)cc3)o2)n(C)c1=O [Example 109, 7-{[5-(4-fluorophenyl)-1,3,4-oxadiazol-2-yl]methyl}-1,3-dimethyl-8-(piperazin-1-yl)-2,3,6,7-tetrahydro-1H-purine-2,6-dione]
	1380	Cn1c(=O)c2c(nc(Cl)n2Cc2nnc(-c3ccc(Cl)nc3)o2)n(C)c1=O [Example 95, 8-chloro-7-{[5-(6-chloropyridin-3-yl)-1,3,4-oxadiazol-2-yl]methyl}-1,3-dimethyl-2,3,6,7-tetrahydro-1H-purine-2,6-dione]
14.9		CN(C)C1CCN(c2nc3c(c(=O)n(C)c(=O)n3C)n2Cc2nnc(-c3ccc(Cl)c(Cl)c3)o2)CC1 [Example 45, 7-{[5-(3,4-dichlorophenyl)-1,3,4-oxadiazol-2-yl]methyl}-8-[4-(dimethylamino)piperidin-1-yl]-1,3-dimethyl-2,3,6,7-tetrahydro-1H-purine-2,6-dione]
	6910	Cn1c(=O)c2c(nc(Cl)n2Cc2nnc(-c3cccnc3)o2)n(C)c1=O [Example 94, 8-chloro-1,3-dimethyl-7-{[5-(pyridin-3-yl)-1,3,4-oxadiazol-2-yl]methyl}-2,3,6,7-tetrahydro-1H-purine-2,6-dione]
